Like-named read-outs stand apart in the source and are kept apart here.
Tests used:
[1] = target: MPro^C145A (Severe acute respiratory syndrome coronavirus 2, UniProt P0DTC1, C3408A); format: binding, SARS-CoV-2
[2] = tested on: MPro^WT (SARS-CoV-2 main protease, mature dimer); details: ITC, cited from earlier work; for Kd: read-out: Kd = Ki
[3] = tested on: MPro^WT (SARS-CoV-2 main protease, mature dimer); format: binding
[4] = target: T1, MPro^1-199(C145A) (Severe acute respiratory syndrome coronavirus 2, UniProt P0DTC1, C3408A); design: species or system SARS-CoV-2
[5] = target: T1, MPro^1-199(C145A); format: binding, SARS-CoV-2

SMILES	Kd = Ki [1]	N ([2]; GC373)	ΔG ([2]; GC373) [kcal/mol]	ΔH ([2]; GC373) [kcal/mol]	ΔS ([2]; GC373) [cal/mol/K]	Kd ([2]; GC373) [nM]	increase in binding affinity by nitrile warhead reacting with C145 [3]	N [1]	ΔH [1]	ΔS [1] [cal/mol/K]	Kdimer.app [4] [µM]	dimer formation in SV-AUC [4]	protein-inhibitor adduct in mass spectra [5]	N ([2]; NMV)	ΔG ([2]; NMV)	ΔH ([2]; NMV)	ΔS ([2]; NMV) [cal/mol/K]	Kd ([2]; NMV) [nM]
CC(C)C[C@H](NC(=O)OCc1ccccc1)C(=O)N[C@H](C=O)C[C@@H]1CCNC1=O [GC373]	no response	0.99 ± 0.01	-9.4	-6.7 ± 0.1	9.1	150 ± 30	–	–	–	–	–	–	–	–	–	–	–	–
CC(C)(C)[C@H](NC(=O)C(F)(F)F)C(=O)N1C[C@H]2[C@@H]([C@H]1C(=O)N[C@H](C#N)C[C@@H]1CCNC1=O)C2(C)C [NMV, nirmatrelvir]	–	–	–	–	–	–	~ 400 times	0.96 ± 0.04	–3.89 ± 0.2 kcal/mol	12.6	>200	no faster sedimenting species other than a monomer was observed	absence of the imidate thioester adduct	0.99 ± 0.003	–11.2 kcal/mol	–10.75 ± 0.7 kcal/mol	1.57	7 ± 3
